A short description of series [1]: Single oral dose pharmacokinetics study in rats (10 mg/kg PO; plasma levels of prodrug and of metabolite DMT or 5-MeO-DMT by LC-MS/MS). Conditions: for AUC(0-t) / Cmax: male, Sprague-Dawley, rat, po, 10 mg/kg.
The nature of series [2]: Single intravenous dose pharmacokinetics study in rats (1 mg/kg IV; plasma levels of prodrug and of DMT or 5-MeO-DMT by LC-MS/MS). To be noted: for AUC(0-t) / AUC(0-inf) / clearance / MRT / Vd / half-life: male, Sprague-Dawley, rat, iv, 1 mg/kg; for clearance: CL/CL_F (mL/min/kg); for MRT: MRT (h); for Vd: Vdss (L/kg); for half-life: t1/2 (h).
Where [3] appears, read: PO 10 mg/kg, plasma, analyte = dosed compound.
[4] abbreviates: plasma, AUC0-t (nM.hr), PO 10 mg/kg, analyte = dosed compound.
[5] abbreviates: plasma, AUC0-t (ng.hr/mL), PO 10 mg/kg, analyte = dosed compound.
The mark [6] stands for this setting: plasma, C0/Cmax (nM), PO 10 mg/kg, analyte = dosed compound.
[7] abbreviates: plasma, C0/Cmax (ng/mL), PO 10 mg/kg, analyte = dosed compound, mean/median.
Setting [8] is: IV 1 mg/kg, plasma, analyte = dosed compound.
Setting [9] is: plasma, AUC0-t (nM.hr), IV 1 mg/kg, analyte = dosed compound.
The mark [10] stands for this setting: plasma, AUC0-t (ng.hr/mL), IV 1 mg/kg, analyte = dosed compound.
Where [11] appears, read: plasma, AUCinf (nM.hr), IV 1 mg/kg, analyte = dosed compound.
Where [12] appears, read: plasma, AUCinf (ng.hr/mL), IV 1 mg/kg, analyte = dosed compound.
Where [13] appears, read: plasma, IV 1 mg/kg, analyte = dosed compound.
[14] abbreviates: PO 10 mg/kg Plasma (t= 0 to Ihr).
Where [15] appears, read: IV 1 mg/kg Plasma (t= 0 to Ihr).
Setting [16] is: plasma, IV 1 mg/kg Plasma (t= 0 to Ihr).

Turning to `CC(C)OP(=O)(OC(C)C)n1cc(CCN(C)C)c2ccccc21` [Diisopropylphosphonate DMT Prodrug, 2-(1-diisopropoxyphosphorylindol-3-yl)-N,N-dimethyl-ethanamine], in series [1] (PO 10 mg/kg Plasma [Tlast = 4 h] vs IV 1 mg/kg), the “Bioavailability (%) Using AUC0-t” value is reported as 16.1%. Also, the “tlast” value in series [1] (PO 10 mg/kg Plasma [Tlast = 4 h], analyte = dosed prodrug) stood at 4.00 h; in series [1] (setting [3]), 7.00 h; in series [2] (setting [8]), 4.00 h. For the same compound, the “Clast” value worked out at 28.2 ng/mL in series [1] (setting [3]) and 5.22 ng/mL in series [2] (setting [8]). The AUC(0-t) worked out at 1.39 µM·h in series [1] (plasma, AUC0-t (nM.hr), PO 10 mg/kg Plasma [Tlast = 4 h], analyte = dosed prodrug); 1.83 µM·h in series [1] (setting [4]); 489 ng·h/mL in series [1] (plasma, AUC0-t (ng.hr/mL), PO 10 mg/kg Plasma [Tlast = 4 h], analyte = dosed prodrug); 644 ng·h/mL in series [1] (setting [5]); 0.862 µM·h in series [2] (setting [9]); 304 ng·h/mL in series [2] (setting [10]). The Cmax in series [1] (plasma, C0/Cmax (nM), PO 10 mg/kg Plasma [Tlast = 4 h], analyte = dosed prodrug) was 554 nM; in series [1] (setting [6]) it was 554 nM; in series [1] (plasma, C0/Cmax (ng/mL), PO 10 mg/kg Plasma [Tlast = 4 h], analyte = dosed prodrug), 195 ng/mL; in series [1] (setting [7]), 195 ng/mL. In addition, the “AUC % Back Extrapolation to C0” value in series [2] (setting [8]) is 36.7%. In series [2] (setting [8]), the “AUC % Extrapolation to infinity” value is listed as 3.21%. Moreover, the area under the curve AUC(0-inf) was determined as 0.881 µM·h in series [2] (setting [11]) and 311 ng·h/mL in series [2] (setting [12]). Besides, the clearance in series [2] (setting [13]) came out at 70.2 mL/min/kg. In addition, the MRT in series [2] (setting [13]) was 52.1 min. Further, in series [2] (setting [13]), the distribution volume (Vd) was determined as 4.21 L/kg. In series [2] (setting [13]), the half-life is 51.9 min.

Consider `CCOC(=O)n1cc(CCN(C)C)c2cc(OC)ccc21` [Compound 19, Ethyl 3-[2-(dimethylamino)ethyl]-5-methoxy-indole-1-carboxylate], for which the “Clast” value in series [1] (setting [3]) is on record as 1.90 ng/mL; in series [2] (setting [8]), 2.95 ng/mL. For the same compound, the “tlast” value is reported as 24.0 h in series [1] (setting [3]) and 5.50 h in series [2] (setting [8]). For the same compound, the AUC(0-t) in series [1] (setting [4]) was found to be 0.237 µM·h; in series [1] (setting [5]), 68.8 ng·h/mL; in series [2] (setting [9]), 14.4 µM·h; in series [2] (setting [10]) it was 4170 ng·h/mL. For the same compound, the Cmax in series [1] (setting [6]) came to 8.15 nM; in series [1] (setting [7]), 2.37 ng/mL. For the same compound, the “AUC % Back Extrapolation to C0” value in series [2] (setting [8]) is 59.7%. Besides, in series [2] (setting [8]), the “AUC % Extrapolation to infinity” value is listed as 0.104%.

Regarding `CN(C)CCc1c[nH]c2ccccc12` [DMT, N,N-dimethyltryptamine], the “Clast” value came to 3.18 ng/mL in series [1] (setting [14]), 1.52 ng/mL in series [1] (setting [3]), 5.51 ng/mL in series [2] (setting [15]) and 7.12 ng/mL in series [2] (setting [8]). Also, the “tlast” value came out at 1.02 h in series [1] (setting [14]), 24.0 h in series [1] (setting [3]), 1.00 h in series [2] (setting [15]) and 1.50 h in series [2] (setting [8]). Moreover, the “Bioavailability (%) Using AUC0-t” value in series [1] (PO 10 mg/kg Plasma (t= 0 to Ihr) vs IV 1 mg/kg) is 0.212%. Besides, the results for the “AUC % Extrapolation to infinity” value in series [1] (setting [3]), in series [2] (setting [15]) and in series [2] (setting [8]) were 42.6%, 0.502% and 0.690%, respectively. Also, the “CL/CL_F” value in series [1] (setting [3]) is recorded as 1639 mL/min/kg. Besides, the AUC(0-t) in series [1] (plasma, AUC0-t (nM.hr), PO 10 mg/kg Plasma (t= 0 to Ihr)) is 0.0239 µM·h; in series [1] (setting [4]), 0.314 µM·h; in series [1] (plasma, AUC0-t (ng.hr/mL), PO 10 mg/kg Plasma (t= 0 to Ihr)), 4.51 ng·h/mL; in series [1] (setting [5]), 59.1 ng·h/mL; in series [2] (plasma, AUC0-t (nM.hr), IV 1 mg/kg Plasma (t= 0 to Ihr)) it was 1.13 µM·h; in series [2] (setting [9]), 1.14 µM·h. Moreover, the AUC(0-t) in series [2] (plasma, AUC0-t (ng.hr/mL), IV 1 mg/kg Plasma (t= 0 to Ihr)) was determined as 213 ng·h/mL; in series [2] (setting [10]), 214 ng·h/mL. Further, the Cmax in series [1] (plasma, C0/Cmax (nM), PO 10 mg/kg Plasma (t= 0 to Ihr)) turned out to be 47.1 nM; in series [1] (setting [6]), 69.4 nM; in series [1] (plasma, C0/Cmax (ng/mL), PO 10 mg/kg Plasma (t= 0 to Ihr)) it was 8.87 ng/mL; in series [1] (setting [7]), 13.1 ng/mL. Further, the figures for the “AUC % Back Extrapolation to C0” value in series [2] (setting [15]) and in series [2] (setting [8]) were 67.2% and 66.4%, respectively. The AUC(0-inf) was determined as 1.14 µM·h in series [2] (plasma, AUCinf (nM.hr), IV 1 mg/kg Plasma (t= 0 to Ihr)); 1.15 µM·h in series [2] (setting [11]); 214 ng·h/mL in series [2] (plasma, AUCinf (ng.hr/mL), IV 1 mg/kg Plasma (t= 0 to Ihr)); 216 ng·h/mL in series [2] (setting [12]). The figures for the clearance in series [2] (setting [16]) and in series [2] (setting [13]) were 87.1 mL/min/kg and 85.8 mL/min/kg, respectively. Further, the results for the mean residence time MRT in series [2] (setting [16]) and in series [2] (setting [13]) were 7.92 min and 9.12 min, respectively. The distribution volume (Vd) in series [2] (setting [16]) came out at 0.645 L/kg; in series [2] (setting [13]), 0.774 L/kg. Moreover, the half-life in series [2] (setting [16]) is 8.4 min; in series [2] (setting [13]) it was 8.76 min.

Turning to `COc1ccc2c(c1)c(CCN(C)C)cn2P(=O)(OC(C)C)OC(C)C` [Diisopropylphosphonate 5-MeO-DMT Prodrug, 2-(1-diisopropoxyphosphoryl-5-methoxy-indol-3-yl)-N,N-dimethyl-ethanamine], the “Bioavailability (%) Using AUCinf” value in series [1] (PO 10 mg/kg vs IV 1 mg/kg, plasma, analyte = dosed compound) is given as 33.8%. In addition, in series [1] (setting [3]), the “AUC % Extrapolation to infinity” value is recorded as 7.77%, the “CL/CL_F” value amounted to 450 mL/min/kg, the “Clast” value is given as 2.84 ng/mL and the “tlast” value is listed as 24.1 h. The AUC(0-t) in series [1] (setting [4]) stood at 0.921 µM·h. For the same compound, in series [1] (setting [5]), the exposure AUC(0-t) is 352 ng·h/mL. Also, the Cmax in series [1] (setting [6]) was 210 nM. In series [1] (setting [7]), the Cmax came to 80.4 ng/mL. Also, in series [2] (setting [8]), the “AUC % Back Extrapolation to C0” value is 7.68%, the “AUC % Extrapolation to infinity” value is 7.01%, the “Clast” value turned out to be 5.32 ng/mL and the “tlast” value was determined as 4.00 h. Besides, the AUC(0-t) in series [2] (setting [9]) stood at 0.273 µM·h. Also, the AUC(0-t) in series [2] (setting [10]) was 104 ng·h/mL. Besides, the AUC(0-inf) in series [2] (setting [11]) was determined as 0.295 µM·h. Moreover, the AUC(0-inf) in series [2] (setting [12]) turned out to be 113 ng·h/mL. In series [2] (setting [13]), the clearance is 150 mL/min/kg, the MRT is 83.4 min, the Vd was 12.2 L/kg and the half-life was 60.6 min.

Turning to `CCOC(=O)n1cc(CCN(C)C)c2ccccc21` [Compound 20, Ethyl 3-[2-(dimethylamino)ethyl]indole-1-carboxylate], in series [1] (setting [3]), the “Clast” value is recorded as 3.01 ng/mL and the “tlast” value came out at 1.00 h. Further, the AUC(0-t) in series [1] (setting [4]) worked out at 0.0184 µM·h. Further, in series [1] (setting [5]), the area under the curve AUC(0-t) amounted to 4.78 ng·h/mL. Moreover, the Cmax in series [1] (setting [6]) came out at 44.3 nM. Also, in series [1] (setting [7]), the Cmax is 11.5 ng/mL. Besides, in series [2] (setting [8]), the “AUC % Back Extrapolation to C0” value is reported as 17.5%, the “AUC % Extrapolation to infinity” value was 1.073%, the “Clast” value worked out at 3.26 ng/mL and the “tlast” value is 4.00 h. For the same compound, the exposure AUC(0-t) in series [2] (setting [9]) is 1.07 µM·h. Also, the AUC(0-t) in series [2] (setting [10]) amounted to 279 ng·h/mL. In series [2] (setting [11]), the AUC(0-inf) is 1.08 µM·h. The AUC(0-inf) in series [2] (setting [12]) was determined as 282 ng·h/mL. In series [2] (setting [13]), the clearance was 67.9 mL/min/kg, the mean residence time (MRT) was found to be 48.6 min, the Vd is 3.53 L/kg and the half-life is 36.8 min.

What is called AUC(0-t) is the area under the concentration-time curve up to a stated or last time point. Usually Cmax stands for the maximum level reached in the sampled fluid or tissue. As usually defined, the AUC(0-inf) is total exposure, with the tail of the curve extrapolated. By clearance is commonly meant a measure of how efficiently the substance is removed, as volume per time. The term MRT denotes the average time that molecules of a dose stay in the body. For orientation: Vd means the apparent volume that relates the amount in the body to the concentration in plasma or blood. Usually half-life stands for the time needed for the level to fall by half in the phase considered.

The record behind these values is patent publication US11866408B2, “N,N-dimethyltryptamine and related psychedelics and uses thereof” (Terran Biosciences Inc., priority 2021, dated 2024).
